Reference: PMC7179302, “Lead Optimization of Dehydroemetine for Repositioned Use in Malaria” (Antimicrobial Agents and Chemotherapy, 2020)
Counter-ions that a name gives are not always drawn.

Experiments:
[1] = tested on: female gametocytes in P. falciparum strain NF54; test: Dual gamete formation assay, female gametocytes (Pfs25 expression); type: cell-based; details: Plasmodium falciparum, 48 h incubation
Method: A bioassay was performed to assess the malaria transmission-blocking potential of compounds on P. falciparum strain NF54 by estimating their ability to prevent male mature gametocytes from progressing to male microgametes or/and to inhibit female gamete activation, as indicators of gametocyte functionality. The NF54 strain was selected for its increased ability to produce gametocytes under in vitro conditions ([45]). The activation of male gametocytes into mature microgametes is evaluated by the process of exflagellation (extrusion of rapidly waving flagellum-like microgametes from the infected erythrocyte). The activation of female gametocytes is evaluated based on the specific expression of the P. falciparum s25 (Pfs25) protein at the surface of the female activated gametes ([46]). […]
Asexual cultures of P. falciparum strain NF54 parasites were used to seed gametocyte cultures at 0.5% parasitemia, 4% hematocrit in a 50-ml total volume under 3% O2, 5% CO2, 92% N2 gas. […] Plates were analyzed to detect exflagellation centers. […] Then, plates were analyzed to detect female activated gametes. Activation of male gametes was detected based on light changes provoked by flagellar movements that caused movement of surrounding cells. A 10-frame video was taken and then analyzed to determine these changes in cell position based on changes in pixels. […]

[2] = tested on: P. falciparum strain 3D7A; test: 3H-hypoxanthine incorporation assay, strain 3D7A; type: cell-based; details: Plasmodium falciparum, read-out: IC50 (μM) 3D7A
Method: The cross-resistance assay used relies on the parasites’ incorporation of labeled 3H-hypoxanthine, which is proportional to P. falciparum growth. In vitro cross-resistance of the compounds is measured as the ratio between the IC50 for the tested P. falciparum strain and the IC50 for strain 3D7A. Every replicate from a multidrug-resistant (MDR) strain involved a simultaneous determination using a 3D7A replicate to avoid any artifact linked to experimental conditions.
The three strains used for the cross-resistance assay were 3D7A, Dd2, and W2, based on their resistance profiles; the assay was carried out by GSK, Tres Cantos. Strain 3D7A is chloroquine sensitive, strain Dd2 is resistant to chloroquine, mefloquine, and pyrimethamine ([57]), and strain W2 is resistant to chloroquine, quinine, pyrimethamine, cycloguanil, and sulfadoxine (from the Malaria Research and Reference Reagent Resource Center [MR4]) ([58]). A culture of red blood cells (RBCs) parasitized by the corresponding strain (0.5% parasitemia, 2% hematocrit) in RPMI 1640, […], and 5 μM hypoxanthine was exposed to 9 dilutions (3-fold serial dilutions) of the compound starting at 5 μM. One hundred microliters of culture volume was plated in 96-well flat-bottom microtiter plates with 0.5 μl drug (200× stock in DMSO). Plates were incubated for 24 h at 37°C, 5% CO2, 5% O2, 90% N2. Next, 3H-hypoxanthine was added and plates were incubated for another 24-h period. After that, parasites were harvested on a glass fiber filter using a TomTec cell harvester 96. Filters were dried, and melt-on scintillator sheets were used to determine the incorporation of 3H-hypoxanthine. Radioactivity was measured using a MicroBeta counter. […] IC50 values were determined using the Grafit 7 program ([41]).

SMILES	IC50 [1]	IC50 [2]
CCC1=C(C[C@H]2NCCc3cc(OC)c(OC)cc32)C[C@H]2c3cc(OC)c(OC)cc3CCN2C1 [(−)-R,S-dehydroemetine, (S)-2-((R)-6,7-dimethoxy-1,2,3,4-tetrahydro-isoquinolin-1-ylmethyl)-3-ethyl-9,10-dimethoxy-1,6,7,11b-tetrahydro-4H-pyrido[2,1-a]isoquinoline * dihydrobromide]	1.04 µM	0.146 µM
CCC1=C(C[C@@H]2NCCc3cc(OC)c(OC)cc32)C[C@H]2c3cc(OC)c(OC)cc3CCN2C1 [(−)-S,S-dehydroisoemetine, (S)-2-((S)-6,7-dimethoxy-1,2,3,4-tetrahydro-isoquinolin-1-ylmethyl)-3-ethyl-9,10-dimethoxy-1,6,7,11b-tetrahydro-4H-pyrido[2,1-a]isoquinoline * dihydrobromide]	> 10 µM	1.03 µM
